Series [1] has as its system sheep red blood cells (RBCs). It is filed as cell-based.
In a further series the test system is X. axonopodis. It is filed as cell-based, Xanthomonas axonopodis. The note with it: OD 600 after 16 h of growth, serial two-fold dilutions, room temperature, n = 3.

Where no end group is shown, it is not given here.

For “LSLIAAAGKETIRQYLKNEIKKKGRKAVIAW [Syn-safencin]”, the “hemolytic activity (in words)” value in series [1] is recorded as “mild hemolytic activity”. For the same sequence, the MIC in the series on X. axonopodis came out at 8 µM.

Usually MIC stands for the smallest concentration in the dilution series that meets the test's criterion for growth inhibition. Low readings indicate a more susceptible organism, high ones a less susceptible organism.

The values above are taken from article PMC8887552 (The Journal of antibiotics, 2018).
